# Experimental data reported in the supplement of paper PMC10307832.
# Tests used:
# Experiment in all cases: relative viability (nuclei count vs DMSO), 5 days (fraction); higher = more cells survive
# [1] = compound: O=C(c1cc(Cc2n[nH]c(=O)c3ccccc23)ccc1F)N1CCN(C(=O)C2CC2)CC1 [Olaparib] + CC(=O)c1c(C)c2cnc(Nc3ccc(N4CCNCC4)cn3)nc2n(C2CCCC2)c1=O [Palbociclib] (partner 0.5 µM)
# Summary of the method: (§1)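 Relative viability equals treated-well nuclei counts divided by vehicle-well nuclei counts. Counts came from 4× images of lung cancer cell lines grown in 1536-well plates for 5 days after pin-tool dosing on the day after seeding. Dosing used one drug alone or a fixed anchor-drug dose plus five library-drug doses (not always all listed) in √10 steps, and values are medians of duplicate plates.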
# [2] = compound: O=C(c1cc(Cc2n[nH]c(=O)c3ccccc23)ccc1F)N1CCN(C(=O)C2CC2)CC1 [Olaparib] + CS(=O)(=O)CCNCc1ccc(-c2ccc3ncnc(Nc4ccc(OCc5cccc(F)c5)c(Cl)c4)c3c2)o1 [Lapatinib] (partner 2 µM)
# Summary of the method: as §1
# [3] = compound: O=C(c1cc(Cc2n[nH]c(=O)c3ccccc23)ccc1F)N1CCN(C(=O)C2CC2)CC1 [Olaparib] + CS(=O)(=O)N1CCN(Cc2cc3nc(-c4cccc5[nH]ncc45)nc(N4CCOCC4)c3s2)CC1 [Pictilisib] (partner 1 µM)
# Summary of the method: as §1
cell line,measurement,setting,value
NCI-H1793,relative viability,[1]; first compound 0.08 µM,0.274
same,relative viability,[1]; first compound 0.253 µM,0.302
same,relative viability,[1]; first compound 2.53 µM,0.327
same,relative viability,[1]; first compound 8 µM,0.286
same,relative viability,[2]; first compound 0.08 µM,0.641
same,relative viability,[2]; first compound 0.253 µM,0.5
same,relative viability,[2]; first compound 2.53 µM,0.578
same,relative viability,[2]; first compound 8 µM,0.649
same,relative viability,[3]; first compound 0.08 µM,0.515
same,relative viability,[3]; first compound 0.253 µM,0.389
same,relative viability,[3]; first compound 2.53 µM,0.251
same,relative viability,[3]; first compound 8 µM,0.298
